Results as given in US7220773B2, “Pyrrole derivative” (Dainippon Sumitomo Pharma Co., Ltd., priority 2001, dated 2007).

System: male db/db mice
Assay: Hypoglycemic activity in db/db mice, oral administration once a day for 2 weeks
Type: in vivo
Details: male db/db mice (7 to 8 weeks old), versus vehicle on last day; for inhibition in vivo at 30 mg/kg / inhibition in vivo at 100 mg/kg: Mus musculus, po, 336 h; for inhibition in vivo at 100 mg/kg: dosage 100 mg/kg orally once a day for 2 weeks in 0.5% carboxymethyl cellulose
Protocol: The test compounds described in Examples (these compound were made into a free form from a salt form, a sodium salt or calcium salt, if necessary) were dissolved or suspended in 0.5% carboxymethyl cellulose solution. Mice were forced to orally administer the test compound as to administer the total amount of 30 mg/kg or 100 mg/kg to male db/db mice (7 to 8 weeks old) once a day for 2 weeks. On last day, to the blood just taken from tail vein was added perchloric acid to remove proteins and then the blood sugar was measure by glucose CII Test Waco (Wako Pure Chemical Ind.). Hypoglycemic activity was calculated as following formula: [formula] • A: Blood sugar level of Vehicle (on last day) • B: Blood sugar level of test compound-administered group (on last day)

[1] = dosage 30 mg/kg orally once a day for 2 weeks in 0.5% carboxymethyl cellulose

`COc1ccc(C(=O)c2cc(C)cn2C/C=C/c2cccc(O[C@@H](C)C(=O)O)c2)cc1` [Example 158] showed an inhibition in vivo at 30 mg/kg [1] of 24%.

`COc1cccc(C(=O)c2cccn2C/C=C/c2cccc(OC(C)C(=O)O)c2)c1` (stereo not drawn) [Example 63] was tested, and the inhibition in vivo at 30 mg/kg [1] was 19%.

For `Cc1ccc(C(=O)c2cccn2C/C=C/c2cccc(O[C@@H](C)C(=O)O)c2)cc1` [Example 142], the inhibition in vivo at 100 mg/kg was 55%.

For `Cc1ccc(CC(=O)c2cccn2C/C=C/c2cccc(O[C@@H](C)C(=O)O)c2)cc1` [Example 191], the inhibition in vivo at 30 mg/kg [1] was 15%.

Molecule `Cc1ccc(C(=O)c2cccn2C/C=C/c2cccc(SC(C)C(=O)O)c2)cc1` (stereo not drawn) [Example 126] has an inhibition in vivo at 30 mg/kg [1] of 56%.

Work on `Cc1ccc(C(=O)c2cccn2C/C=C/c2cccc([C@H](C)C(=O)O)c2)cc1` [Example 111] yielded an inhibition in vivo at 30 mg/kg [1] of 61%.

`Cc1ccc(C(=O)c2cccn2C/C=C/c2cccc([C@@H](C)C(=O)O)c2)cc1` [Example 110] was tested, and the inhibition in vivo at 30 mg/kg [1] was 17%.

Work on `C[C@H](Oc1cccc(/C=C/Cn2cccc2C(=O)c2ccc3c(c2)CCO3)c1)C(=O)O` [Example 186] yielded an inhibition in vivo at 30 mg/kg [1] of 44%.

In the case of `Cc1ccc(CC(=O)c2cccn2C/C=C/c2cccc(O[C@@H](C)C(=O)O)c2)cc1` [Example 201], the “Hypoglycemic activity(%)” value [1] is reported as 18%.

Molecule `CCC(Cc1cccc(/C=C/Cn2cccc2C(=O)c2ccc(C)cc2)c1)C(=O)O` (stereo not drawn) [Example 165] has an inhibition in vivo at 100 mg/kg of 68%.

Work on `Cc1ccc(C(=O)c2cccn2C/C=C/c2cccc(C(C)(C)C(=O)O)c2)cc1` [Example 39] yielded an inhibition in vivo at 100 mg/kg of 65%.

`O=C(O)COc1cccc(/C=C/Cn2cccc2C(=O)c2ccc(Cl)cc2)c1` [Example 53] was tested, and the inhibition in vivo at 100 mg/kg was 23%.

Work on `CC(Oc1cccc(/C=C/Cn2cccc2C(=O)c2cccc(Oc3ccc(C(F)(F)F)cc3)c2)c1)C(=O)O` (stereo not drawn) [Example 155] yielded an inhibition in vivo at 30 mg/kg [1] of 57%.

For `CCc1ccc(C(=O)c2cccn2C/C=C/c2cccc(O[C@@H](C)C(=O)O)c2)cc1` [Example 91], the inhibition in vivo at 30 mg/kg [1] was 55%.

With `COc1ccccc1NC(=O)c1cccn1C/C=C/c1cccc(SCC(=O)O)c1` [Example 171] the inhibition in vivo at 100 mg/kg was 20%.

With `CC(Oc1cccc(/C=C/Cn2cccc2C(=O)Nc2ccc(OC(F)(F)F)cc2)c1)C(=O)O` (stereo not drawn) [Example 179] the inhibition in vivo at 30 mg/kg [1] was 22%.

Molecule `Cc1ccc(NC(=O)c2cccn2C/C=C/c2cccc(SCC(=O)O)c2)cc1` [Example 135] has an inhibition in vivo at 100 mg/kg of 16%.

In the case of `Cc1ccc(C(=O)c2cccn2C/C=C/c2cccc(O[C@H](C)C(=O)O)c2)cc1` [Example 139], the inhibition in vivo at 100 mg/kg is reported as 55%.

Molecule `C[C@H](Oc1cccc(/C=C/Cn2cccc2C(=O)c2ccc3c(c2)OCO3)c1)C(=O)O` [Example 92] has an inhibition in vivo at 30 mg/kg [1] of 46%.

Work on `Cc1ccc(C(=O)c2ccn(C/C=C/c3cccc(SC(C)C(=O)O)c3)c2)cc1` (stereo not drawn) [Example 128] yielded an inhibition in vivo at 100 mg/kg of 27%.

For `CC(Oc1cccc(/C=C/Cn2cccc2C(=O)c2ccc(C(F)(F)F)cc2)c1)C(=O)O` (stereo not drawn) [Example 143], the inhibition in vivo at 30 mg/kg [1] was 21%.
